Here are results for six compounds from patent US20240229055A9, “MOGROSIDE COMPOSITIONS AND METHODS OF PRODUCING SAME” (Elo Life Systems, priority 2022, published 2024).

Assay [1] relates to sensory panel of trained judges. Kind of assay: Concentration response curve: sweetness intensity scored against sucrose reference standards, Beidler equation fit. The class given is in vivo, human. Conditions: for Potency at 5 SEV: room temperature, P=SEV*10,000/C; for Beidler equation SEV=a*C/(b+C): constant b (concentration) / Beidler equation SEV=a*C/(b+C): constant a (maximum SEV): best fitting Beidler equation; for Beidler equation SEV=a*C/(b+C): constant b (concentration): C in ppm or mg/L; for Beidler equation SEV=a*C/(b+C): constant a (maximum SEV): SEV = % sucrose equivalent sweetness. Here is the method: A blend composed of 80% purified mogroside-V (Chem Faces, CFS202202), 15% 11-oxo-mogroside-V (Chem Faces, CFS202201), and 5% mogroside IIIA-1 (Chem Faces, CFS202201) was diluted to six different concentrations (from 100 ppm to 650 ppm) in spring water (Ice Mountain, retail). For each solution, a set of five reference standards of sucrose dissolved in water in 0.5% (w/w) concentration increments was also prepared. Each concentration of the mogroside blend was evaluated by 6-8 trained judges. Samples were presented in 4-oz soufflé cups at room temperature, and the test sample was labeled with a random 3-digit code. Panelists tasted the blind-coded sample compared to the set of reference samples to determine the sweetness intensity score to the nearest 0.1 unit. Each concentration was evaluated in duplicate. The sweetness intensity scores were then plotted against the mogroside blend concentration to make a concentration response curve, and the best fitting Beidler equation was generated. […] is a 90% pure mogroside V containing about 6% 11-oxo mogroside-V. Five different concentrations of V90 (Huacheng Bio, LHGE-230401), ranging from 100 ppm to 500 ppm, were diluted in spring water (Ice Mountain, retail). Each dilution was presented to a panel of 7-8 judges experienced in evaluating sweeteners and was accompanied by a range of five sucrose solution reference standards bracketing the sweetness intensity of the test sample in 0.5% (w/w) increments. Panelists assigned a sweetness intensity score to each test sample, including blind duplicates, to the nearest 0.1 unit. All samples were served at room temperature in 4-oz soufflé cups with the test samples labeled with random 3-digit codes. Water and […] crackers were provided for rinsing between samples. Both individual mogrosides were also evaluated at five different concentrations in spring water (Ice Mountain, retail) for sweetness intensity. 11-oxo-mogroside was diluted to concentrations ranging from 200 ppm to 600 ppm and mogroside IIIA-1 was diluted to concentrations from 100 to 500 ppm. For each concentration, a set of five sucrose solution reference standards were prepared in 0.5% (w/w) increments to approximately bracket the sweetness intensity of the test sample. A panel of 6-8 trained judges evaluated each test sample in duplicate, accompanied by the corresponding reference standards, and assigned a sweetness intensity score to the sample to the nearest 0.1 unit. Samples were presented in 4-oz soufflé cups at room temperature, and the test sample was labeled with a random 3-digit code. The sweetness intensity scores were then plotted as a function of mogroside concentration to make a concentration response curve, and the best fitting Beidler equation was generated. P=SEV*10,000/C • where C is the concentration of the mogroside blend in ppm or mg/L and SEV is the % sucrose equivalent sweetness determined by sensory panel.

For assay [2] the test system is unchanged. Kind of assay: Temporal properties: onset of sweetness, time to maximum sweetness, decay after expectorating. The following applies: 600 ppm, about 6 SEV, in spring water. The class given is in vivo, human. Here is the method:
Equi-sweet solutions at about 6 SEV were made in spring water (Ice Mountain, retail) of the following sweeteners: purified mogroside-V (Chem Faces, CFS202202), rebaudioside M (95%, Tate & Lyle, lot #1802-2302-1), rebaudioside A (95%, Tate & Lyle, 210617-01), and monk fruit (50% mogroside V, Tate & Lyle, 45GF220305). Another solution was prepared at about 6 SEV of a blend composed of 80% purified mogroside-V (Chem Faces, CFS202202), 15% 11-oxo-mogroside-V (Chem Faces, CFS202201), and 5% mogroside IIIA-1 (Chem Faces, CFS202201). The concentration of each solution can be found in Table 7.
A set of samples of each solution was evaluated by a panel of 7-9 trained judges. Panelists measured the time to onset of sweetness and time to reach maximum sweetness using a timer. Sweetness decay after expectorating was measured by rating sweetness intensity every 5 seconds on a 15-cm line scale graduated in evenly spaced 5-point increments and labeled low (0) to high (60). […] Blind duplicates were evaluated in a second panel under the same conditions.
A solution of V90 was made at 410 ppm in spring water (Ice Mountain, retail) to be about 6 SEV. […] A panel of 7-8 trained judges evaluated the temporal properties and taste attributes of each sample, including blind duplicates, in the same manner described previously in the Mogroside Blend 80/15/5 Taste Quality sections. […]

For assay [3], the system named is sensory panel of experienced judges. The assay is described as follows: Descriptive analysis of sweetener attributes on a 15-cm line scale, low (0) to high (60). The class given is in vivo, human. Conditions: about 6 SEV solution, 0=low, 60=high. From the text: The same samples described above were presented to a panel of 6-9 experienced judges for descriptive analysis. Solutions were blind-coded with random 3-digit codes and served at room temperature for evaluation. Panelists individually scored attributes of each sample, such as sweetness intensity, bitterness, astringency, and the presence of side flavors such as licorice or fruitiness. Scores were based on a 15-cm line scale marked with evenly spaced 5-point increments from low (0) to high (60). Samples were evaluated in duplicate. Water and […] crackers were provided for rinsing between samples. A solution of […] was made at 410 ppm in spring water (Ice Mountain, retail) to be about 6 SEV. A second solution was made at about 6 SEV of purified mogroside-V (Chem Faces, CFS202202) at 325 ppm. A panel of 7-8 trained judges evaluated the temporal properties and taste attributes of each sample, including blind duplicates, in the same manner described previously in the Mogroside Blend 80/15/5 Taste Quality sections. The panel also evaluated the intensity of several sensory attributes such as bitterness, astringency, caramel flavor, and fruitiness. The same 15-cm line scale was used for scoring, labeled from low (0) to high (60) with evenly spaced 5-point increments. The samples were served in 4-oz soufflé cups that were labeled with random 3-digit codes. Samples were evaluated at room temperature and included blind duplicates. Water and […] crackers were provided for rinsing between samples. A 400-ppm solution of V90 (Huacheng Bio, LHGE-230401) was tasted as a reference at the beginning of the descriptive analysis session for calibration verification among panelists.

The test system of assay [4] is sensory panel of trained judges. Conditions: 6 SEV solution of sucrose; cited from earlier work.
[5] abbreviates: in spring water, from Beidler curve.

As for `C[C@H](CC[C@@H](O[C@@H]1O[C@H](CO[C@@H]2O[C@H](CO)[C@@H](O)[C@H](O)[C@H]2O)[C@@H](O)[C@H](O)[C@H]1O[C@@H]1O[C@H](CO)[C@@H](O)[C@H](O)[C@H]1O)C(C)(C)O)[C@H]1CC[C@@]2(C)[C@@H]3CC=C4[C@@H](CC[C@H](O[C@@H]5O[C@H](CO[C@@H]6O[C@H](CO)[C@@H](O)[C@H](O)[C@H]6O)[C@@H](O)[C@H](O)[C@H]5O)C4(C)C)[C@]3(C)C(=O)C[C@]12C` [11-oxo-mogroside V], the “Potency at 5 SEV” value in assay [1] (setting [5]) is recorded as 28x. For the same compound, the “times as sweet as sucrose at 5 SEV” value in assay [1] (in spring water, running text, listed as 11-oxo mogroside-V) is given as “approximately 28 times as sweet as sucrose”; in assay [1] (in spring water, running text, listed as 11-oxo-mogroside-V) it was 28 times as sweet as sucrose. Moreover, the “Beidler equation SEV=a*C/(b+C): constant b (concentration)” value in assay [1] came to 546.3 ppm. Also, the “Beidler equation SEV=a*C/(b+C): constant a (maximum SEV)” value in assay [1] came to 6.56 SEV.
Take `C[C@H](CC[C@@H](O[C@@H]1O[C@H](CO[C@@H]2O[C@H](CO)[C@@H](O)[C@H](O)[C@H]2O)[C@@H](O)[C@H](O)[C@H]1O[C@@H]1O[C@H](CO)[C@@H](O)[C@H](O)[C@H]1O)C(C)(C)O)[C@H]1CC[C@@]2(C)[C@@H]3CC=C4[C@@H](CC[C@H](O)C4(C)C)[C@]3(C)[C@H](O)C[C@]12C` [Mogroside IIIA-1, mogroside III-A1]: the “Potency at 5 SEV” value in assay [1] (setting [5]) worked out at 71x. Also, in assay [1], the “Beidler equation SEV=a*C/(b+C): constant b (concentration)” value is reported as 139.9 ppm and the “Beidler equation SEV=a*C/(b+C): constant a (maximum SEV)” value stood at 6.00 SEV. Moreover, the “bitter taste still present after expectorating” value in assay [2] is “more than 60 seconds”.
Turning to `C[C@H](CC[C@@H](O[C@@H]1O[C@H](CO[C@@H]2O[C@H](CO)[C@@H](O)[C@H](O)[C@H]2O)[C@@H](O)[C@H](O)[C@H]1O[C@@H]1O[C@H](CO)[C@@H](O)[C@H](O)[C@H]1O)C(C)(C)O)[C@H]1CC[C@@]2(C)[C@@H]3CC=C4[C@@H](CC[C@H](O[C@@H]5O[C@H](CO[C@@H]6O[C@H](CO)[C@@H](O)[C@H](O)[C@H]6O)[C@@H](O)[C@H](O)[C@H]5O)C4(C)C)[C@]3(C)[C@H](O)C[C@]12C` [Mogroside V, mogroside V], the “Potency at 5 SEV” value in assay [1] (setting [5]) came out at 185x. Also, in assay [1] (in spring water, listed as purified Mog-V), the “times as sweet as sucrose at 5 SEV” value is listed as approximately 200 times as sweet as sucrose. Also, the “times as sweet as sucrose at 5 SEV” value in assay [1] (in spring water, running text, listed as mogroside V) was 185 times as sweet as sucrose. The “times as sweet as sucrose at 5 SEV” value in assay [1] (in spring water, running text, listed as mogroside-V) is “about 185 times as sweet as sucrose”. In assay [1] (10 SEV, in spring water, from Beidler curve, beyond tested concentrations), the “Potency at 10 SEV” value is listed as 131x. Also, in assay [1], the “Beidler equation SEV=a*C/(b+C): constant b (concentration)” value is 920.8 ppm and the “Beidler equation SEV=a*C/(b+C): constant a (maximum SEV)” value came to 22.03 SEV. In assay [3] (listed as Mog·V), the “Astringent, average intensity score” value is 2.5¤; the “Bitterness, average intensity score” value is 1.4¤; the “Body, average intensity score” value was 12.1¤; the “Caramel, average intensity score” value was 4.5¤. Also, in assay [3] (listed as Mog·V), the “Fruity, average intensity score” value is 3.0¤; the “Licorice, average intensity score” value is given as 0.7¤; the “Sweet Linger, average intensity score” value is 14.3¤; the “Sweetness, average intensity score” value is recorded as 36.3¤.
Take `C=C1C[C@@]23CC[C@H]4[C@@](C)(CCC[C@@]4(C)C(=O)O[C@@H]4O[C@H](CO)[C@@H](O)[C@H](O)[C@H]4O)[C@@H]2CC[C@]1(O[C@@H]1O[C@H](CO)[C@@H](O)[C@H](O[C@@H]2O[C@H](CO)[C@@H](O)[C@H](O)[C@H]2O)[C@H]1O[C@@H]1O[C@H](CO)[C@@H](O)[C@H](O)[C@H]1O)C3` [Rebaudioside A, rebaudioside A]: in assay [3], the “Astringent, average intensity score” value is recorded as 3.7¤; the “Bitterness, average intensity score” value is recorded as 11.2¤; the “Body, average intensity score” value is on record as 9.1¤; the “Caramel, average intensity score” value was 1.9¤. In assay [3], the “Fruity, average intensity score” value is 1.3¤; the “Licorice, average intensity score” value is 2.7¤; the “Sweet Linger, average intensity score” value was 9.6¤; the “Sweetness, average intensity score” value is recorded as 35.1¤.
For `C=C1C[C@@]23CC[C@H]4[C@@](C)(CCC[C@@]4(C)C(=O)O[C@@H]4O[C@H](CO)[C@@H](O)[C@H](O[C@@H]5O[C@H](CO)[C@@H](O)[C@H](O)[C@H]5O)[C@H]4O[C@@H]4O[C@H](CO)[C@@H](O)[C@H](O)[C@H]4O)[C@@H]2CC[C@]1(O[C@@H]1O[C@H](CO)[C@@H](O)[C@H](O[C@@H]2O[C@H](CO)[C@@H](O)[C@H](O)[C@H]2O)[C@H]1O[C@@H]1O[C@H](CO)[C@@H](O)[C@H](O)[C@H]1O)C3` [Rebaudioside M, rebaudioside M], in assay [3], the “Astringent, average intensity score” value is 2.0¤; the “Bitterness, average intensity score” value was 1.7¤; the “Body, average intensity score” value is recorded as 11.2¤; the “Caramel, average intensity score” value is on record as 3.5¤. In assay [3], the “Fruity, average intensity score” value is 1.6¤; the “Licorice, average intensity score” value is recorded as 1.0¤; the “Sweet Linger, average intensity score” value is given as 17.3¤; the “Sweetness, average intensity score” value is reported as 36.4¤.
As to `OC[C@H]1O[C@@](CO)(O[C@H]2O[C@H](CO)[C@@H](O)[C@H](O)[C@H]2O)[C@@H](O)[C@@H]1O` [sucrose], the “sweet linger decay time (typical value)” value in assay [4] is 20 to 25 s.
